Data set [1] relates to E. romani venom. As to conditions: 30 mg/kg single oral dosing; ref not given; cited from earlier work.
Data set [2] concerns SVMP activity of Echis romani venom. The settings on record: read-out: ERO EC50; E. romani venom; ref not given; cited from earlier work.
Data set [3] has as its system procoagulant activity of E. romani venom. The settings on record: read-out: Coagulation assay EC50 E. romani; 10 ng E. romani venom, citrated bovine plasma; mean of n ≥ 3, range in brackets.
Procedure: (§1) This assay consists of preincubating venom (or venom vehicle control) at a species-specific dose with the compound of interest (or compound vehicle control), then adding citrated bovine plasma to the wells and activating the clotting cascade with calcium chloride. […] Compounds of interest were stamped onto 384-well plates at a volume of 0.5 μL and a concentration of 10 mM in 100% DMSO. Positive and negative control wells were stamped with 0.5 μL of 100% DMSO. To the test wells and the venom-only positive control wells, 10 μL of venom diluted to 1 μg/mL (E. romani) or 10 μg/mL (B. jararaca) in PBS was added, giving a final well amount of 10 ng (E. romani) or 100 ng (B. jararaca) per well. In the no venom negative control wells, 10 μL of PBS was added. The plates were then sealed, span briefly in a Platefuge and incubated at 37 °C for 25 min to allow venom-inhibitor interaction. While the plates were incubating, sufficient citrated bovine plasma (S0260, BioWest) to allow 20 μL/well was centrifuged at 3120 RCF for 5 min to remove any residual cellular debris and the supernatant was collected. The 384-well plates were removed from the incubator for 5 min to allow acclimation to room temperature, then 20 μL/well of 20 mM CaCl2 was added and immediately followed by the addition of 20 μL/well of centrifuged citrated bovine plasma, both via a Multidrop Combi reagent dispenser (5840330, Thermo Fisher Scientific). The plates were then read kinetically using an absorbance protocol on a CLARIOStar microplate reader at 595 nm for 60 min. […] Dose response plates were conducted identically and the % inhibition values at each dose were used to draw EC50 curves to estimate the EC50 value of each compound tested. All coagulation experiments were repeated independently a minimum of three times.
Data set [4] has as its system procoagulant activity of B. jararaca venom. As to conditions: read-out: Coagulation assay EC50 B. jararaca; 100 ng B. jararaca venom, citrated bovine plasma; mean of n ≥ 3, range in brackets.
Procedure: as §1
Data set [5] deals with E. romani P–I, P–II and P–III SVMPs. As to conditions: P–I, P–II, P–III SVMPs; drug 10 μM (P–I, P–II), 400 nM (P–III); gel.
Procedure: (§2) Evaluation of SVMP toxin activity of human prothrombin and fibrinogen and inhibition by test compounds was performed by SDS-PAGE degradation gel electrophoresis using venom-purified toxins. P–I, P–II and P–III SVMPs were isolated using an adaptation of the method of Howes et al. Whole E. romani venom (15 mg) was initially separated using size exclusion chromatography (SEC) on a 120 mL column of Superdex 75 (Cytiva). The P–II SVMP (22 kDa) was pure and ready to use at this stage. P–I and P–III SVMP containing peaks were separately applied to a 1 mL high resolution hydrophobic interaction chromatography (HIC) column (SOURCE 15PHE, Cytiva). […] The P–I eluted as two peaks of proteins with identical molecular weight (21 kDa) which were combined back together. The P–III-containing fraction from SEC eluted from HIC as multiple peaks of P–III SVMP isoforms, well separated from the earlier eluting L-amino acid oxidase and high molecular weight C-type lectin-like proteins. The proteins in the PIII-containing peaks were pooled back together.
Degradation of human fibrinogen was measured in a similar manner. Human fibrinogen (Merck) was added at 5 μg/reaction and incubated with the different SVMP isoforms in the presence or absence of drugs. Drug concentrations used were 10 μM for P–I and P–II SVMP and 400 nM for P–III SVMP. The reactions consisted of 200 ng SVMP isoform and the appropriate concentration of drug, which were then incubated for 30 min at 37 °C in a water bath. Five micrograms of fibrinogen were then added and the samples incubated for another hour at 37 °C, before separation by SDS-PAGE as described above.
The conditions of data set [6]: mouse.
Procedure: (§3) The in vivo PK study was performed by ChemPartner (Shanghai, China). […] Mice had access to food and water throughout the pre- and postdose sampling period. […] Approximately 110 μL whole blood/time point (sampling at 0.083, 0.25, 0.5, 1, 2, 4, 8, and 24 h) was collected via serial bleeding in K2EDTA tube via facial vein. The blood sample was kept on ice and centrifuged (2,000 × g, 4 °C, 5 min) within 15 min postsampling. The plasma drug concentrations were determined by LC-MS/MS (ESI, Triple Quad 5500 System) on positive ion mode and using dexamethasone as internal standard. Liquid chromatography (LC) was performed using a 2.5 μm Xbridge BEH-C18 column (2.1 mm × 50 mm) at 60 °C with a rate of 0.6 mL/min. The following mobile phases were used; A: Water (+0.025% Formic acid and 1.0 mM ammonium acetate), B: Methanol (+0.025% Formic acid and 1.0 mM ammonium acetate).
In data set [7] the test system is SVMP activity of Bitis arietans venom. As to conditions: read-out: Inhibition of SVMP enzymatic activity EC50 BAR; B. arietans venom; mean of n ≥ 3, range in brackets.
Procedure: (§4) Throughout our medicinal chemistry campaign, compounds were evaluated for their ability to inhibit enzymatic SVMP toxin activity in vitro using a previously described fluorescent-based substrate cleavage assay against five medically important viper venoms, namely Echis romani (Roman’s carpet viper, West Africa), Crotalus atrox (Western diamondback rattlesnake, North America), Calloselasma rhodostoma (Malayan pit viper, South East Asia), Bothrops jararaca (jararaca, South America) and Bitis arietans (puff adder, Africa).
(§5) Compounds of interest were stamped onto 384-well plates at a volume of 0.91 μL at a concentration of 1 mM in 100% DMSO (D2650, Sigma-Aldrich). Positive and negative control wells were stamped with 0.91 μL of 100% DMSO. To the test wells and the venom-only positive control wells, 15 μL of venom diluted to 0.066 μg/mL in PBS was added, giving a final amount of 1 μg/well. In the no venom negative control wells, 15 μL of PBS was added. The plates were then sealed, span briefly in a Platefuge (C2000, Benchmark Scientific) and incubated at 37 °C for 25 min to allow venom-inhibitor interaction. […] Dose response plates were conducted identically and the % inhibition values at each dose were used to draw EC50 curves to estimate the EC50 value of each compound tested. All SVMP experiments were repeated independently a minimum of three times.
Data set [8] relates to E. romani venom in human whole blood. The settings on record: venom 60 ng plus drug 5 μM; mean.
Procedure: We measured the coagulation profile of whole human blood using thromboelastography, and compared with venom stimulated, and venom and drug stimulated, clotting profiles. […] Blood samples were collected in ACD-A blood tubes. Using a ROTEM delta (Werfen) a final volume of 300 μL blood per reaction was pipetted into prewarmed cups (37 °C), with four channels per run. Whole blood was warmed for 5 min at 37 °C, during which time 12 μL of E. romani venom (5 ng/nL concentration, 60 ng dose), 15 μL of DMSO vehicle or test compounds (5 μM final concentration, 0.2% DMSO), and 20 μL of Startem reagent (CaCl2, Werfen) was prepared. The maximum incubation time of venom and inhibitors was 2 min, before 253 μL of whole blood were added and mixed before reading on the ROTEM delta. The commonly used parameters of clotting time and maximum clot firmness (MCF) were reported, from a minimum of three independent measurements per experimental group.
Data set [9] has as its system SVMP activity of five viper venoms (E. romani, C. atrox, C. rhodostoma, B. jararaca, B. arietans). The settings on record: read-out: broad-spectrum inhibition of SVMP activity EC50s; range over the five venoms.
Procedure: as §4, §5
Data set [10] is described as follows: in vitro. The settings on record: human, microsomes.
Procedure: (§6) The DMPK properties data described in the manuscript were measured via a high-throughput platform by AstraZeneca (United Kingdom).
Data set [11] in a line: in vivo. As to conditions: male, CD1, mouse, plasma, po, 20 mg/kg.
Procedure: as §3
Data set [12] concerns thrombin-antithrombin (TAT) complexes.
Procedure: Blood samples were collected from mice via cardiac puncture immediately following euthanasia. Samples were centrifuged at 1400 × g for 10 min at 4 °C, and the plasma supernatant stored at −80 °C until use. Plasma TAT levels were determined using a sandwich ELISA provided as a commercial kit (Abcam, ab137994). Mouse plasma samples were diluted 1:150 using Diluent M and were run in duplicate alongside a standard curve. Each well received 50 μL diluted plasma and was incubated for 2 h at room temperature to allow for the reaction with the TAT complexes antibodies coated onto the plate. After five washes, 50 μL of biotinylated mouse TAT complexes antibodies were added to the plate and the reaction allowed to proceed for another 2 h. Following another five washes, 50 μL of a streptavidin-peroxidase conjugate were added to the plate and incubated for another 30 min. Next, 50 μL of a chromogenic substrate (3,3′,5,5′-tetramethylbenzidine) was added to the plate and the peroxidase-dependent reaction allowed to proceed until a clear blue color formed in the well. At this point 50 μL of stop solution was added and the absorbance read immediately at 450 and 570 nm. The 570 nm absorbance readings were subtracted from the 450 nm ones, and the levels of TAT complexes (ng/mL) extrapolated based on the standard curve.
Data set [13] concerns E. romani P–I and P–III SVMPs. As to conditions: drug 2 μM, gel.
Procedure: as §2
Prothrombin degradation was measured by incubating 2 μg of human prothrombin (Hematologic Technologies INC) in the presence or absence of drug and the P–I, P–II, and P–III SVMPs. […] Briefly, drug or DMSO and 200 ng of purified SVMP isoform were incubated for 30 min at 37 °C in a water bath, after which 2 μg of human prothrombin were added and the samples incubated for another hour at 37 °C. Drug concentrations used were 2 μM for P–I and P–III SVMPs. Samples were then processed for loading onto a 4–20% SDS-PAGE gel (Biorad) and were run under reducing conditions for 45 min at 180 V. The gels were stained with Coomassie Brilliant Blue R250 and degradation profiles were visualized and images captured using a GelDoc (Biorad).
The test system of data set [14] is SVMP activity of Bothrops jararaca venom. The settings on record: read-out: Inhibition of SVMP enzymatic activity EC50 BJA; B. jararaca venom; mean of n ≥ 3, range in brackets.
Procedure: as §4, §5
For data set [15], the system named is SVMP activity of Crotalus atrox venom. As to conditions: read-out: Inhibition of SVMP enzymatic activity EC50 CAT; C. atrox venom; mean of n ≥ 3, range in brackets.
Procedure: as §4, §5
Data set [16] in a line: physchem. The settings on record: organic solvent / aqueous solvent at pH 7.4, pH 7.4.
Procedure: as §6
For data set [17], the system named is SVMP activity of Calloselasma rhodostoma venom. The settings on record: read-out: Inhibition of SVMP enzymatic activity EC50 CRH; C. rhodostoma venom; mean of n ≥ 3, range in brackets.
Procedure: as §4, §5
Data set [18] deals with E. romani venom.
Procedure: Room conditions were set at 20–24 °C and 45–65% humidity, 12/12 h light cycles. Mice were allowed ad libitum access to Picolab 5R53 food (Lab Diet, USA) and reverse osmosis water and housed with nesting material and environmental enrichment materials.
Mice weighed 22–28 g at the start of study. Five milligram or kilogram morphine was administered subcutaneously as an analgesic 15 min prior to venom administration. […] No criteria for including or excluding animals was applied, and all data points were included in analyses. Animals were monitored for humane end points (loss of righting reflex, seizure, external hemorrhage) for 8 h to encompass the drug exposure time frame, and any animals showing such signs were immediately euthanized by rising concentrations of carbon dioxide. All observations were performed by mixed gender experimenters who were blinded to the drug group allocation. Time of death, number of deaths and number of survivors were recorded, where deaths and times of death represent implementation of humane end point-dictated euthanasia. Kaplan–Meier survival plots were generated using GraphPad Prism 9.0 (GraphPad Software, San Diego, USA).
Data set [19] concerns mouse fibrinogen and prothrombin. As to conditions: in words.
Procedure: Mouse plasma samples were diluted 1:50 (antifibrinogen blots) and 1:30 (antiprothrombin blots) and 5 μL was run on 4–20% SDS-PAGE gels (BioRad) at 180 V for 1 h. The separated proteins were then transferred onto nitrocellulose membranes using semidry transfer on a Trans-Blot Turbo (BioRad) using the following conditions: 1.3 A, 25 V, 7 min. Blots were then stained for 5 min with Revert 700 Total Protein Stain (LICORbio) following the manufacturer’s protocol and imaged on the 700 nm channel on an Odyssey Fc Imaging System to detect protein abundance and ensure equal loading. Membranes were then destained in 0.1 M NaOH, 30% methanol for no longer than 10 min, then blocked in 5% milk TBST for 1 h. The primary antibodies: antifibrinogen (ab34269, rabbit polyclonal, Abcam) and antiprothrombin (PA5-77976, rabbit polyclonal, Thermo Fisher) were diluted 1:1,500 and 1:1,000, respectively, in 5% milk TBST. The membranes were incubated with the appropriate primary antibody for 1.5 h at room temperature, followed by three 5 min washes in TBST. Blots were then incubated for 1 h at room temperature with an IRDye 800CW donkey anti-rabbit IgG secondary antibody (1:15000, LICORbio), followed by three 5 min washes in TBS. The blots were imaged on an Odyssey Fc Imaging System at both 700 and 800 nm.
Data set [20] in a line: in vitro. As to conditions: rat, hepatocytes.
Procedure: as §6
Data set [21] in a line: physchem. As to conditions: aqueous medium at pH 7.4, pH 7.4, aqueous buffer.
Procedure: as §6
The subject of data set [22] is SVMP activity of Echis romani venom. The settings on record: read-out: Inhibition of SVMP enzymatic activity EC50 ERO; E. romani venom; mean of n ≥ 3, range in brackets; listed as 23 (DC-174).
Procedure: as §4, §5
Data set [23] concerns human plasma protein.
Procedure: as §6
Data set [24] concerns E. romani venom. The settings on record: venom 10 μg/egg, drug 1 μg/egg topical, 6 h; in words.
Procedure: Fertile hens eggs were supplied on day 1 post fertilization from UK supplier MedEggs Ltd. Eggs were immediately placed horizontally to incubate at 37 °C until day 5 of development. Candling was conducted to mark the position of the embryo to guide windowing. Any infertile eggs were removed at this stage. To access the embryos, all fertile eggs were then windowed under laminar flow. In brief, 6–8 mL of albumin was removed using a 23G needle. The area marking the position of the embryo was then covered with medical tape, and a dish of shell removed using sharp dissection scissors. The exposed embryo was then covered using parafilm and the egg returned to the incubator overnight. Surviving embryos were then randomly allocated into groups of n = 5. […] Treatments were given in a total volume of 10 μL, administered directly onto (i.e., topically) the vitelline vein. Embryos were returned to the incubator immediately following dosing, and then observed at 1, 2, 4, and 6 h. Survival was monitored via the observation of a heartbeat. Venom pathology was captured using a Motic SMZ 171-TLED microscope system. In brief, at each observation time point (1, 2, 4, and 6 h post envenoming) images were captured using a Moticam X5 Wi-Fi camera. To track changes across the experimental time course, the imaging position was kept consistent at each time point for individual embryos.

Where two headings read alike, the source gives them in different places.

Consider `O=S(=O)(O)CC(S)CS` (stereo not shown) [DMPS, 2,3-dimercapto-1-propanesulfonic acid], for which the “oral dosing murine survival at 8 h” value in data set [1] is recorded as 40%. For the same compound, in data set [2], the EC50 was 1650 nM.

Consider `COc1ccc(S(=O)(=O)N2CCN(S(=O)(=O)C3CC3)C[C@@H]2C(=O)NO)cc1` [compound 23, (R)-4-(Cyclopropylsulfonyl)-N-hydroxy-1-((4-methoxyphenyl)sulfonyl)piperazine-2-carboxamide], for which the EC50 in data set [3] is 135 nM; in data set [4], 13.4 nM; in [7], 3.9 nM; in data set [9], 4.7 to 38.6 nM; in data set [14], 10.9 nM; in data set [15] it was 22.9 nM. For the same compound, the figures for the EC50 in data set [17] and in data set [22] were 38.6 nM and 4.7 nM, respectively. Besides, in data set [5], the “protection against degradation of fibrinogen” value is given as “protected against the degradation of fibrinogen”. Further, the “drug level at 4 h as share of C max” value in data set [6] (20 mg/kg oral, 4 h after dosing) came to 8.4%. The “time for drug levels to reach their peak” value in data set [6] (oral dosing) is given as 30 min. Besides, the clotting time in data set [8] came out at 8.6 min. In data set [8], the “maximum clot firmness (MCF)” value is 60.3 [SD 0.6] mm. The compound also yielded a microsomal CLint in [10] of 8.3 µL/min/mg. Further, the AUC(0-inf) in data set [11] is 450 ng·h/mL. The compound also gave an AUC(0-t) in data set [11] of 444 ng·h/mL. For the same compound, the Cmax in [11] came out at 311 ng/mL. Moreover, in data set [11], the MRT inf was 1.61 h. The compound also displayed an MRT last in [11] of 1.49 h. For the same compound, the time of peak concentration (Tmax) in data set [11] was 0.5 h. Further, the concentration at 4 h in data set [11] was determined as 26.1 ng/mL. In data set [11], the half-life is 1.41 h. The “TAT levels, mean” value in data set [12] (single 20 mg/kg oral dose, all mice) worked out at 18.6 ng/mL; in [12] (single 20 mg/kg oral dose, mice that died during the experiment) it was 29.6 ng/mL; in data set [12] (single 20 mg/kg oral dose, the two survivors), 2.1 ng/mL; in [12] (two 20 mg/kg oral doses) it was 13.7 ng/mL. The “protection against prothrombin degradation” value in data set [13] is given as “almost full protection”. The compound also registered a log distribution coefficient (logD) in data set [16] of 0.2. Moreover, the “survival times vs venom-only” value in data set [18] (90 μg venom i.p., single 20 mg/kg oral dose, p = 0.01, in words) is listed as “significantly prolonged survival times”. Further, in data set [18] (two dose oral regimen 20 mg/kg, 8 h experiment), the mean survival time came to 420 min. Moreover, the “time at which the mouse succumbed” value in data set [18] (two dose oral regimen 20 mg/kg, one of five mice) stood at 180 min. In addition, the “plasma prothrombin and fibrinogen profiles” value in data set [19] (single 20 mg/kg oral dose, surviving mice) was “intact prothrombin and fibrinogen profiles”. Besides, the plasma fibrinogen entry in data set [19] (two 20 mg/kg oral doses) is on record as “fibrinogen was detectable in all multiply dosed animals”. In data set [19] (two 20 mg/kg oral doses), the plasma prothrombin result is “Prothrombin was detectable in three of the four surviving mice”. Further, the hepatocyte CLint in data set [20] is 13.3 µL/min/1e6 cells. Moreover, in data set [21], the solubility is > 1000 µM. Moreover, the “Human Protein binding (%free)” value in data set [23] is on record as 66 %free. In addition, the embryo survival result in data set [24] is reported as “complete survival”.
